These results are taken from US5196424A, “N-[2-amino-4-substituted[[(pyrrollo or pyrido)[2,3-d]pyrimidinyl]-alkyl]benzoyl]-L-glutamic acids” (priority 1992, dated 1993).

In brackets after ≈: the same amount, converted by molar mass. Read-outs that look alike come from different tables or passages of the source. Bounds are passed on as bounds.

In one series the test system is CCRF-CEM cells. The series can be described thus: Growth inhibition of CCRF-CEM human leukemia cells, 72 h, Coulter counter (Table I). The class given is cell-based. Particulars: read-out: IC50, concentration required for 50% inhibition of growth. As to the method:
Cluster plates were prepared in duplicate with the compound at various concentrations ranging from 100 μg/ml to 0.005 μg/ml. Test compounds were dissolved initially in DMSO and further diluted with solvent to the desired concentration.

The test system of another series is 6C3HED lymphosarcoma. In words: In vivo test against transplanted 6C3HED (Gardner) lymphosarcoma in C3H mice (Table II). As for the experimental part:
The compounds were tested in C3H mice bearing a 6C3HED lymphosarcoma, also known as the Gardner lymphosarcoma (GLS). The 6C3HED lymphosarcoma was obtained from the Division of Cancer Treatment, National Cancer Institute, Tumor Bank, maintained at E. G. and G. Mason Research (Worcester, Massachusetts). First passage tumor was stored in liquid nitrogen using standard techniques. The transplanted tumor was reestablished from the Tumor Bank every six months or as needed. The tumor was maintained by serial passage twice weekly in C3H mice.
In the procedure, the tumor was removed from passage animals and minced into 1- to 3-mm square fragments using sterile techniques. Tumor pieces were checked for sterility using both Antibiotic Medium 1 and Brain Heart Infusion (Difco, Detroit, Mich.). Recipient mice were shaved and tumor pieces were implanted subcutaneiously in the auxiliary region by trocar. Drug therapy on the appropriate schedule was initiated on the day after tumor implant. The compound being tested was mixed with 2.5 weight % of a polyoxyethylated oil known as "Emulphor EL 620" surfactant from GAF Chemicals Corporation (1:40 dilution of Empulphor in saline). All animals were weighed at the beginning and end of administration of the subject compounds. Food and water were provided ad libitum. The drug was administered in 0.5 ml of 2.5% Emulphor. Unless otherwise indicated, the compound was administered once per day for eight days. The tumor was measured the day after treatment ended with two dimensional measurements (width and length) of the tumor taken using digital electronic calipers interfaced to a microcomputer, J. F. Worzalla, et al., Investigational New Drugs, 8, 241-251 (1990). Tumor weights were calculated from these measurements using the following formula:
(tumor weight in mg)=width in mm)^2 ×(length in mm)/2
At least one control group of an equal number of mice was treated with the same volume of 2.5% Emulphor only.

In series [1] the test system is C3H Mammary Adenocarcinoma. To be noted: Days 1,3,5,7,9.
Series [2] addresses T1, human dihydrofolate reductase (DHFR) (Homo sapiens, UniProt P00374).
T1 construct: was obtained from human leukemic lymphoblasts (WI-L2/M4 cells); endogenous in cells; host or cells: WI-L2/M4 human leukemic lymphoblasts; enzyme purified from the cells according to Delcamp et al., Biochemistry 22, 633-639 (1983)
T1 sequence (P00374 1-187): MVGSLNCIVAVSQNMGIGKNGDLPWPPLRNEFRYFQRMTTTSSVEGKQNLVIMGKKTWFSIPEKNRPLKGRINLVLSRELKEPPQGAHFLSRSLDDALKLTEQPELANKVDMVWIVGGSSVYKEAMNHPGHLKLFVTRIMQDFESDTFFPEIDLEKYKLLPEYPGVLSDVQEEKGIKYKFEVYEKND
The series can be described thus: Inhibition of isolated human dihydrofolate reductase (Table III). The class given is biochemical. Particulars: DHFR (5 × 10^-8 M); read-out: DHFR IC50, concentration required for 50% inhibition of enzyme activity.

The test system of the next series is dihydrofolic reducatase. Particulars: background statement; cited from earlier work.
The mark [3] stands for this setting: CCRF-CEM cells, 72 h incubation.

For the compound `Nc1nc(Cl)c2c(CCc3ccc(C(=O)N[C@@H](CCC(=O)O)C(=O)O)cc3)c[nH]c2n1` [Example 1, N-[2-amino-4-chloro-[[pyrrolo[2,3-d]-pyrimidin-5-yl]-ethyl]benzoyl]-L-glutamic acid], in the series with CCRF-CEM cells (setting [3]), the IC50 is greater than 20 µg/mL.
The same measure, in the same setting: then `Nc1nc(S)c2c(CCc3ccc(C(=O)N[C@@H](CCC(=O)O)C(=O)O)cc3)c[nH]c2n1` [Example 2, N-[2-amino-4-mercapto[[pyrrolo[2,3-d]-pyrimidin-5-yl]-ethyl]benzoyl]-L-glutamic acid], with 0.032 µg/mL (≈ 0.0722 µM); and `Nc1ncc2c(CCc3ccc(C(=O)N[C@@H](CCC(=O)O)C(=O)O)cc3)c[nH]c2n1` [Example 3, N-[2-amino-[[pyrrolo[2,3-d]-pyrimidin-5-yl]-ethyl]benzoyl]-L-glutamic acid], with 0.019 µg/mL (≈ 0.0462 µM).
Turning to `Nc1ncc2c(n1)NCC2CCc1ccc(C(=O)N[C@@H](CCC(=O)O)C(=O)O)cc1` (stereo partly drawn) [Example 4, N-[2-amino-[di-hydropyrrolo[2,3-d]pyrimidin-5-yl]-ethyl]benzoyl-L-glutamicacid], the “% INH (percent inhibition of tumor)” value worked out at 0% in the series on 6C3HED lymphosarcoma (0.25 mg/kg, Dailyx8); 1% in the series on 6C3HED lymphosarcoma (0.50 mg/kg, Dailyx8); 97% with 6C3HED lymphosarcoma (2.00 mg/kg, Dailyx8); 49% in the series with 6C3HED lymphosarcoma (2 mg/kg, Days 1,3,5,7); 100% with 6C3HED lymphosarcoma (4.00 mg/kg, Dailyx8); 99% with 6C3HED lymphosarcoma (4 mg/kg, Days 1,3,5,7). In addition, the “% INH (percent inhibition of tumor)” value in the series on 6C3HED lymphosarcoma (6.25 mg/kg, Dailyx8) was found to be 100%; in the series with 6C3HED lymphosarcoma (12.5 mg/kg, Dailyx8), 100%; with 6C3HED lymphosarcoma (16 mg/kg, Days 1,3,5,7), 100%; in series [1] (2 mg/kg), 10%; in series [1] (4 mg/kg) it was 24%; in series [1] (16 mg/kg), 92%. The “% INH (percent inhibition of tumor)” value in series [1] (32 mg/kg) is given as 95%. In addition, the Toxic/Total with 6C3HED lymphosarcoma (0.25 mg/kg, Dailyx8) was 0/10; with 6C3HED lymphosarcoma (0.50 mg/kg, Dailyx8), 0/10; with 6C3HED lymphosarcoma (1.00 mg/kg, Dailyx8), 0/10; in the series on 6C3HED lymphosarcoma (2.00 mg/kg, Dailyx8), 0/10; with 6C3HED lymphosarcoma (2 mg/kg, Days 1,3,5,7), 0/10; with 6C3HED lymphosarcoma (4.00 mg/kg, Dailyx8), 1/10. The Toxic/Total with 6C3HED lymphosarcoma (4 mg/kg, Days 1,3,5,7) was 0/10; in the series with 6C3HED lymphosarcoma (6.25 mg/kg, Dailyx8), 6/10; in the series with 6C3HED lymphosarcoma (8 mg/kg, Days 1,3,5,7), 0/10; with 6C3HED lymphosarcoma (12.5 mg/kg, Dailyx8), 8/10; in the series with 6C3HED lymphosarcoma (16 mg/kg, Days 1,3,5,7), 0/10; in the series on 6C3HED lymphosarcoma (25 mg/kg, Dailyx8), 10/10. The Toxic/Total is on record as 10/10 with 6C3HED lymphosarcoma (50 mg/kg, Dailyx8); 0/10 in series [1] (1 mg/kg); 0/10 in series [1] (2 mg/kg); 0/10 in series [1] (4 mg/kg). Further, the IC50 is 0.005 µg/mL (≈ 0.0121 µM) in the series with CCRF-CEM cells (setting [3]) and 96 nM in series [2].
For the compound `COc1nc(N)nc2[nH]cc(CCc3ccc(C(=O)N[C@@H](CCC(=O)O)C(=O)O)cc3)c12` [Example 5, N-[2-amino-4-methoxy[[pyrrolo[2,3-d]-pyrimidin-5-yl]-ethyl]benzoyl]-L-glutamic acid], the IC50 in the series on CCRF-CEM cells (setting [3]) is greater than 2 µg/mL.
On the same count and under the same terms, then `CCN(CC)c1nc(N)nc2[nH]cc(CCc3ccc(C(=O)N[C@@H](CCC(=O)O)C(=O)O)cc3)c12` [Example 6, N-[2-amino-4-diethylamino-[[pyrrolo[2,3-d]-pyrimidin-5-yl]-ethyl]benzoyl]-L-glutamic acid], with 0.9 µg/mL (≈ 1.87 µM).
`Nc1ncc2c(n1)NCC(CCc1ccc(C(=O)N[C@@H](CCC(=O)O)C(=O)O)cc1)C2` (stereo partly drawn) [Example 7, N-[2-amino-[[tetrahydropyrido[2,3-d]-pyrimidin-6-yl]-ethyl]benzoyl]-L-glutamic acid]: the IC50 in the series with CCRF-CEM cells (CCRF-CEM, 72 h) was 0.005 µg/mL (≈ 0.0117 µM).
With `CN(Cc1cnc2nc(N)nc(N)c2n1)c1ccc(C(=O)N[C@@H](CCC(=O)O)C(=O)O)cc1` [amethopterin], in the series on dihydrofolic reducatase, the “inhibition of the second reduction, from dihydrofolic acid to tetrahydrofolic acid” value is listed as “inhibit the second reduction”.
